Experimental data published in US8697379B2, “Lysosomotropic inhibitors of acid ceramidase” (MUSC Foundation for Research Development, priority 2008, dated 2014).
Several values for one entry are separate records, joined by “and”; a condition that tells them apart may be missing. Identical values can stand only once. Like-named read-outs stand apart in the source and are kept apart here. One block for each compound: values may come before it.

Experiments:
acid ceramidase (ACDase) [1] = molecular target: T1, acid ceramidase (ACDase) (Homo sapiens, UniProt Q13510); test: In vitro ACDase activity assay, release of radioactive palmitic acid from [3H]C16-Cer in MCF-7 cell lysate; format: biochemical; parameters: C16-Cer as a substrate and MCF-7 cell lysate as an enzymatic source; endogenous in cells; host or cells: MCF-7 cell lysate
T1 sequence (Q13510 22-142 limits assumed): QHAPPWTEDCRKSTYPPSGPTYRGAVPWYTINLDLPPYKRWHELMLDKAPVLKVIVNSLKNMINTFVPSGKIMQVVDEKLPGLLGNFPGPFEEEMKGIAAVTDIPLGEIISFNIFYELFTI
T1 sequence (Q13510 143-395 limits assumed): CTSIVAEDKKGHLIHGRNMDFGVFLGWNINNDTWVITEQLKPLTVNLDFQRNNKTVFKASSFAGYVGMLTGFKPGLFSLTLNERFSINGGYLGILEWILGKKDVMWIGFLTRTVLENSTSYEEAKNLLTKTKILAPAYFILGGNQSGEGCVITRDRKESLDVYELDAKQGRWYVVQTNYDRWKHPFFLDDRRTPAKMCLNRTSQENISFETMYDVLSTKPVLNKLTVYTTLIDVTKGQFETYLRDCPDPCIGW
Protocol: The in vitro assay was carried out according to a previously described procedure (see Zeidan et al., J. Biol. Chem., 281, 24695-24703 (2006)) using [^3H] C16-Cer as a substrate and MCF-7 cell lysate as an enzymatic source. Briefly, cell lysate was prepared under acidic conditions (i.e., pH 4.5, 50 mM sodium acetate, 5 mM magnesium chloride, 1 mM EDTA and 0.5% Triton X-100), and protein level was determined using BCA protein assay kit (Pierce, Rockford, Ill., United States of America). ACDase activity was determined based on the amount of the released radioactive palmitic acid counted by LS 6500 multi-purpose scintillation counter (Beckman Coulter, Inc., Fullerton, Calif., United States of America). The results are presented as percentage of control.

[2] = system: cellular sphingolipids (Cn-Cer, Sph, S1P) in MCF-7 cells; test: Endogenous ceramide, Sph and S1P levels in MCF-7 cells by LC-MS/MS; format: cell-based, human
Protocol: (§1) Effects of the inhibitors on the cellular activity of ACDase were determined using cell lysate from the cultured cells previously treated with increasing concentrations of drugs. For this type of assay, the drugs are allowed to enter the cell for a specific time, then cell lysates were prepared by homogenization and assays performed as described above. Effects on endogenous Cers and Sph were determined using LC-MS/MS analysis as previously described. See Bielawska et al., Bioorg. Med. Chem., 16, 1032-1045 (2008); and Bielawska et al., Methods, 39, 82-91 (2006). Final results were expressed as the level of the particular sphingolipid (SPL)/phospholipids (Pi) determined from the Bligh and Dyer lipid extract and expressed as SPLs/Pi (pmol/nmol).

lysosomes [3] = test: Lysosomal stability by FACS analysis with LYSOTRACKER red; format: cell-based; conditions: for lysosomal stability: 30 μM
Protocol: Effects of Class E inhibitors on ACDase protein degradation were determined by Western blotting as previously described. See Bielawska et al., Bioorg. Med. Chem., 16, 1032-1045 (2008); Liu et al., Front. Biosci., 13, 2293-2298 (2008); and Holman et al., Cancer Chemother. Pharmacol., 61, 231-242 (2008). Lysosomal stability and mitochondrial stability were determined by FACS analysis using LYSOTRACKER™ red (Molecular Probes, Eugene, Oreg., United States of America) or JC-1 mitochondrial dye (Molecular Probes, Eugene, Oreg., United States of America) as previously described. See Holman et al., Cancer. Chemother. Pharmacol., 61, 231-242 (2008).

[4] = Breakdown of prodrugs under the assay conditions; format: in vitro ADME; conditions: under the various assay conditions; preliminary
L929 cells = test: TNF-α induced PGE2 release from L929 mouse fibroblast cells; format: cell-based; conditions: TNF-α treated L929 mouse fibroblast cells; preliminary data
[5] = system: MCF-7 breast carcinoma cells; test: MTT cell viability assay in MCF-7 breast carcinoma cells; format: cell-based, human
Protocol: Class E compounds were administrated to cells capable of undergoing differentiation in amounts effective to induce differentiation of several cancer cell lines: MCF-7, PPC1, SCC14a, A549, and J3DR4. Cell viability assay was performed by the 3-(4,5-Dimethylthiazol-2-yl)-2,5-diphenyltetrazolium bromide (MTT) assay. Cells were seeded into 96-well plate overnight before treatment with increasing drug concentrations (0-100 μM) as previously described. See Hansen et al., J. Immunol. Methods, 119, 203-210 (1989). After treatment, plates were incubated for an additional period of time (24-72 h). Changes in cell numbers were determined and expressed as a percentage of the untreated controls.
Class E prodrugs were administrated to MCF-7 cells capable of undergoing differentiation in amounts effective to induce differentiation. Cell viability assay was performed by the MTT assay. Cells were seeded into 96-well plate overnight before treatment with increasing drug concentrations (0-100 μM) as previously described. See Hansen et al., J. Immunol. Methods, 119, 203-210 (1989). After treatment, plates were incubated for an additional period of time (24-72 h). Changes in cell numbers were determined and expressed as a percentage of the untreated controls. 50% inhibitory concentrations were determined by comparing cell number changes in prodrug treated samples to control samples.

acid ceramidase (ACDase) [6] = molecular target: T1, acid ceramidase (ACDase); test: Cellular activity of ACDase: MCF-7 cells treated with drug, then lysed and assayed; format: cell-based; parameters: C16-Cer as a substrate and MCF-7 cell lysate as an enzymatic source; endogenous in cells; host or cells: MCF-7 cell lysate; conditions: 10 μM, 2 h of treatment
Protocol: as §1

Caspase 3/7 = test: Apo-ONE Homogeneous Caspase 3/7 assay in MCF-7 cells; format: cell-based, human; conditions: 24 h incubation
Protocol: The apoptotic effect of LCL464 was also investigated in MCF-7 cells via its effect on Caspase 3/7, a group of cysteine proteases that mediate execution. This can be activated by apoptotic signals from both death receptor and intracellular/mitochondrial pathways. Briefly, MCF-7 cells were seeded at a density of 5×10^3/50 μL/well overnight in 96 well plates. Then cells were treated with vehicle or diluted LCL464. After 8 and 24 hours incubation, Caspase 3/7 activities were measured using the Apo-ONE Homogeneous Caspase 3/7 Assay Kit according to the manufacturer's instructions (Promega, Madison, Wis., United States of America). LCL464 causes a dose dependent induction of apoptosis following 24 h incubation, causing increase of Caspase 3/7 activities to 140% and 200% for 10 μM and 20 μM, respectively.

lysosomes [7] = conditions: previously studied non-Class E inhibitor; Bielawska et al. 2008; cited from earlier work
[8] = 10 μM, 5 hours, and time course
[9] = MCF-7 cells, MTT, 24 hours, Example 7, hydrochloride, read-out: IC50/24 h
[10] = 48 hours of treatment, Example 6, read-out: IC50, MCF-7 cell growth (50% of surviving cells as compared to the control)

Compound: CCCCCCCCCCCCCC(=O)N[C@H](C)[C@@H](O)c1ccccc1 [D-MAPP, D-erythro-2-(N-myristolyamino)-1-phenyl-1-propanol]
release of PGE2 (L929 cells): inhibited

Compound: CCCCCCCCCCCCCC(=O)N[C@H](CO)[C@H](OC(=O)CN(C)C)c1ccc([N+](=O)[O-])cc1.Cl [LCL522]
regulation of cellular sphingolipids ([2]; 10 μM, 5 hours): behaved similarly to B13 | breakdown / metabolism of the prodrug [4]: breaks down under the various assay conditions to form B13

Compound: CCCCCCCCCCCCCC(=O)N[C@H](COC(=O)CN(C)C)[C@H](OC(=O)CN(C)C)c1ccc([N+](=O)[O-])cc1.Cl [LCL521, (1R,2R)-2-[N-tetradecanoyl)-amino]-1-(4″-nitrophenyl)-1,3-propandiol-1,3-O-bis-dimethylglycine hydrochloride]
IC50 [5, 9]: ~8.9 µM and 8.9 µM | IC50 ([5]; MCF-7 cells, MTT, 48 hours, Example 7, read-out: IC50/48 h): 8.67 µM | IC50 ([5]; MCF-7 cells, MTT, 72 hours, Example 7, read-out: IC50/72 h): 7.45 µM

Compound: O=C(CCCCCCCCCCCN1CCOCC1)N[C@H](CO)[C@H](O)c1ccc([N+](=O)[O-])cc1 [LCL449, (1R,2R)-2-[N-(12′-{1″-morpholine}-dodecanoyl)-amino]-1-(4″-nitrophenyl)-1,3-propandiol]
IC50 [5, 10]: 49.9 µM

The next lines start with results.

effect on acid ceramidase activity in vitro (acid ceramidase (ACDase) [1]; concentration dependent (FIG. 13)): inhibited acid ceramidase in vitro
Compound: CCCCCCCCCCCCCC(=O)N[C@H](COC(=O)CN(C)C)[C@H](OC(=O)CN(C)C)c1ccc([N+](=O)[O-])cc1.Cl [LCL521]
cellular level of Sph and S1P [2, 8]: decreased | levels of pro-apoptotic C16- and C18-Cer and total ceramide [2, 8]: increased | delivery to the lysosomes (LYSOTRACKER Red fluorescence) (lysosomes [3]; 5 μM or 10 μM, 1 hour): appears to be delivered to the lysosomes | breakdown / metabolism of the prodrug [4]: slowly metabolized to the mono-ester LCL581 and B13

IC50 [5, 9]: ~6.5 µM and 6.5 µM
Compound: CCCCCCCCCCCCCC(=O)N[C@H](CO)[C@H](OC(=O)CN(C)C)c1ccc([N+](=O)[O-])cc1.Cl [LCL522, (1R,2R)-2-[N-tetradecanoyl)-amino]-1-(4″-nitrophenyl)-1,3-propandiol-1-O-dimethylglycine hydrochloride]

IC50 ([5]; 72 hr treatment, Example 6, read-out: IC50, MCF-7 cell growth): 7.2 µM | inhibition of ACDase in vitro (acid ceramidase (ACDase) [1]; 50 μM inhibitor, [3H]C16-Cer substrate): 55% | ACDase inhibition at the cellular level (acid ceramidase (ACDase) [6]): 65% | lysosomal dysfunction (LYSOTRACKER Red fluorescence) (lysosomes [3]; 10 μM, 1 and 5 hours of treatment): did not cause lysosomal dysfunction | lysosomal stability (lysosomes [3]; 1 h): 40% | lysosomal stability (lysosomes [3]; 5 h): 61% | lysosomal stability (lysosomes [3]; 24 h): > 100%
Compound: CN(C)CCCCCCCCCCCC(=O)N[C@H](CO)[C@H](O)c1ccc([N+](=O)[O-])cc1 [LCL464, (1R,2R)-2-[N-(12′-N,N-dimethylamino-dodecanoyl)-amino]-1-(4″-nitrophenyl)-1,3-propandiol]
IC50 [5, 10]: 10.2 µM | level of C18-Cer, % of control ([2]; 50 μM, at 24 hours): ~900% | level of C16-Cer (percentage of control) ([2]; 50 μM, early effect): ~240% | concentration at which elevation of C18-Cer was observed ([2]; 24 hours, dose range 0-50 μM): above 20 μM | Caspase 3/7 activities (percentage of control) (Caspase 3/7; 10 μM): 140% | Caspase 3/7 activities (percentage of control) (Caspase 3/7; 20 μM): 200%

ACDase inhibition at the cellular level (acid ceramidase (ACDase) [6]): about 35%
Compound: CCCCCCCCCCCCCCN[C@H](CO)[C@H](O)c1ccc([N+](=O)[O-])cc1 [LCL204, (1R,2R)-2-N-(tetradecylamino)-1-(4′-nitrophenyl)-1,3-propandiol]
lysosomal stability as compared to the control (permanent destabilization) (lysosomes [7]): ~90%
